After the bases stand the sugars from the 5' end (letter, count) and the backbone: PS all phosphorothioate, else s phosphorothioate and o phosphodiester by linkage. Methylation of C is not given here. e = 2'-O-(2-methoxyethyl) (MOE); k = constrained ethyl (cEt); d = 2'-deoxy (DNA); m = 2'-O-methyl
Biological target: HSD17B13
Details: ASO, HepaRG

Sequence | target mRNA inhibition (1 µM) [%] | other results
ATATGTCCAGGTTGAG (sugars k3 d1 m1 d8 k3, PS) | 48 | –
ATATGTCCAGGTTGAG (sugars k3 d9 k3 e1, PS) | 71 | –
ATATGTCCAGGTTGAG (sugars kkdddddddddkekek, PS) | 28 | –
ATATGTGAAGAGCTGG (sugars k3 d10 k3, PS) | 51 | –
ATATTATCAGGACTGA (sugars k3 d10 k3, PS) | 47 | –
ATATTCCAGGATTTGC (sugars k3 d10 k3, PS) | 26 | –
ATATTCTGTGGCATGG (sugars kkdddddddddkekek, PS) | 43 | –
ATATTGAGGCACTGGA (sugars k3 d10 k3, PS) | 53 | –
ATATTGATATACGATG (sugars k3 d10 k3, PS) | 0 | –
ATCAACCTGCACACCA (sugars k3 d10 k3, PS) | 63 | –
ATCAAGACATTCTAGC (sugars k3 d10 k3, PS) | 61 | –
ATCAATGCCTTAGCCC (sugars k3 d10 k3, PS) | 38 | –
ATCACAAGTAAGGTAA (sugars k3 d10 k3, PS) | 62 | –
ATCAGTTTTCCTCATG (sugars k3 d10 k3, PS) | 48 | –
ATCCAAAGATGAGAGT (sugars k3 d10 k3, PS) | 5 | –
ATCCCAACCAAACTTC (sugars k3 d10 k3, PS) | 15 | –
ATCCTATATACATCCA (sugars k3 d9 k3 e1, PS) | 75 | target mRNA inhibition (0.02 µM): 0%; target mRNA inhibition (0.078 µM): 7%; target mRNA inhibition (0.313 µM): 39%; target mRNA inhibition (1.25 µM): 55%; target mRNA inhibition (5 µM): 76%
ATCCTATATACATCCA (sugars kkdddddddddkekek, PS) | 65 | –
ATCTATCAGACTTCTT (sugars k3 d10 k3, PS) | 47 | –
ATCTATCAGACTTCTT (sugars kkdddddddddkekek, PS) | 37 | –
ATCTATTATGCACTCT (sugars k3 d10 k3, PS) | 24 | –
ATCTCTGGGACCAAGG (sugars k3 d9 k3 e1, PS) | 53 | –
ATGAAGTTAGTATAGT (sugars k3 d10 k3, PS) | 55 | –
ATGAGGTAAGGAATCC (sugars k3 d10 k3, PS) | 0 | –
ATGAGGTTTTGATACC (sugars k3 d1 m1 d8 k3, PS) | 49 | –

Sequence | target mRNA inhibition (1 µM) [%] | other results
ATGAGGTTTTGATACC (sugars k3 d10 k3, PS) | 47 | –
ATGAGGTTTTGATACC (sugars kkdddddddddkekek, PS) | 51 | –
ATGCAAAAGCATTCTA (sugars k3 d10 k3, PS) | 50 | –
ATGCTAAAAGCTCACC (sugars k3 d10 k3, PS) | 50 | –
ATGCTACTTGAACAGT (sugars k3 d10 k3, PS) | 47 | –
ATGGATCTAGAACACT (sugars k3 d10 k3, PS) | 43 | –
ATGGCTACAGATTGGA (sugars kkdddddddddkekek, PS) | 57 | –
ATGGTAAACTGTATGC (sugars k3 d10 k3, PS) | 78 | target mRNA inhibition (0.02 µM): 19%; target mRNA inhibition (0.078 µM): 23%; target mRNA inhibition (0.313 µM): 53%; target mRNA inhibition (1.25 µM): 75%; target mRNA inhibition (5 µM): 89%
ATGGTAAGGAGTAGTG (sugars k3 d10 k3, PS) | 17 | –
ATGTAATAGCCAGTAC (sugars k3 d1 m1 d8 k3, PS) | 42 | –
ATGTAATAGCCAGTAC (sugars k3 d9 k3 e1, PS) | 63 | –
ATGTAATAGCCAGTAC (sugars kkdddddddddkekek, PS) | 47 | –
ATGTAATAGGCAGTAA (sugars k3 d10 k3, PS) | 33 | –
ATGTATCTTATAAGAC (sugars kkdddddddddkekek, PS) | 18 | –
ATGTATGAGGTCTCCG (sugars k3 d10 k3, PS) | 63 | –
ATGTCAGACCTCTGTG (sugars k3 d10 k3, PS) | 19 | –
ATGTCTTGGTAATCTC (sugars k3 d10 k3, PS) | 23 | –
ATGTGAAGAGCTGGTA (sugars k3 d1 m1 d8 k3, PS) | 26 | –
ATGTGAAGAGCTGGTA (sugars k3 d10 k3, PS) | 42 | –
ATGTGAAGAGCTGGTA (sugars kkkddkddddddkkke, PS) | 56 | –
ATGTGATTGAGTTCTC (sugars k3 d10 k3, PS) | 36 | –
ATGTTTTGATCCAGGG (sugars k3 d10 k3, PS) | 46 | –
ATTAACATTCGGCTAG (sugars k3 d10 k3, PS) | 17 | –
ATTAAGCATTGTTAGC (sugars k3 d10 k3, PS) | 0 | –
ATTAAGTACTGTGAGA (sugars k3 d10 k3, PS) | 1 | –

Sequence | target mRNA inhibition (1 µM) [%] | other results
ATTAATCATGGGACAG (sugars k3 d10 k3, PS) | 20 | –
ATTAATGCCACCCTAC (sugars k3 d10 k3, PS) | 6 | –
ATTACAGCCTTAGAGT (sugars k3 d10 k3, PS) | 56 | –
ATTAGTCTTGATGTAG (sugars k3 d10 k3, PS) | 67 | –
ATTATTTCTTGCGAGA (sugars k3 d10 k3, PS) | 60 | –
ATTCTATAGCTAAGTA (sugars k3 d10 k3, PS) | 23 | –
ATTGAATAGCCATGTA (sugars k3 d10 k3, PS) | 39 | –
ATTGAATTCACTATCT (sugars k3 d10 k3, PS) | 31 | –
ATTGATACACCAATGC (sugars k3 d10 k3, PS) | 66 | –
ATTGATTCGAAACTAT (sugars k3 d10 k3, PS) | 22 | –
ATTGTAATCTTGAGGC (sugars k3 d10 k3, PS) | 39 | –
ATTGTATGAGGTCTCT (sugars k3 d10 k3, PS) | 49 | –
ATTTAAAATAGAGTCG (sugars k3 d10 k3, PS) | 24 | –
ATTTTTGGTGAACCCA (sugars k3 d10 k3, PS) | 8 | –
CAAAACAAGATTAGTC (sugars k3 d10 k3, PS) | 18 | –
CAAAACCTTTGTTGCC (sugars k3 d10 k3, PS) | 14 | –
CAAACATGGATGTTAG (sugars k3 d10 k3, PS) | 49 | –
CAAACCTTGAATGAGT (sugars k3 d10 k3, PS) | 53 | –
CAAAGTTAATAGGACT (sugars k3 d10 k3, PS) | 50 | –
CAAAGTTTGGGCAGAG (sugars k3 d10 k3, PS) | 44 | –
CAAATGAGGCGGCACT (sugars k3 d10 k3, PS) | 32 | –
CAAATTCATAAGTAGT (sugars k3 d10 k3, PS) | 76 | –
CAACACTAATCTCAGT (sugars k3 d10 k3, PS) | 4 | –
CAACAGTTTAGATTGC (sugars k3 d10 k3, PS) | 66 | –
CAACTATGTAATAGGC (sugars k3 d10 k3, PS) | 79 | target mRNA inhibition (0.02 µM): 1%; target mRNA inhibition (0.078 µM): 17%; target mRNA inhibition (0.313 µM): 42%; target mRNA inhibition (1.25 µM): 73%; target mRNA inhibition (5 µM): 92%
